Experimental data reported in article PMC9310613, “Selenocarbamates As a Prodrug‐Based Approach to Carbonic Anhydrase Inhibition” (Chemmedchem, 2022).
Read-outs that look alike come from different tables or passages of the source.

Legend:
Experiment in all cases: stopped-flow CO2 hydration assay
Assay type in all cases: biochemical
[1] = target: T1, hCA I (Homo sapiens, UniProt P00915)
T1 construct: gene CA1; recombinant, obtained in house
Excerpt: stopped-flow CO2 hydration assay on hCA I

[2] = target: T2, hCA II (Homo sapiens, UniProt P00918)
T2 construct: gene CA2; recombinant, obtained in house
Excerpt: stopped-flow CO2 hydration assay on hCA II

[3] = target: T2, hCA II; conditions: read-out: hCA I

T1 sequence (P00915 2-261): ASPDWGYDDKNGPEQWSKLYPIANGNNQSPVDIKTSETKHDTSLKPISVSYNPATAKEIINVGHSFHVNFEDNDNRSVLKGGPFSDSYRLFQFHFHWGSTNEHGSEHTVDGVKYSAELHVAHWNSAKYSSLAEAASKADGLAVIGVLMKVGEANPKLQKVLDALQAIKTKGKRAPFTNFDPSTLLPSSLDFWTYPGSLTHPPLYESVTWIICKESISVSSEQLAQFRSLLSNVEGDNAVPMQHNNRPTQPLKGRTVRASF

Row | Ki [1] | Ki [2] | Ki [3] | SMILES
1 | 67.5 µM | 79.3 µM |  | C=CCOCC(O)C[Se]C(=O)Nc1cc(C)cc(C)c1 (racemic) [3q, 3 q]
2 | 92.7 µM | 79.4 µM |  | CC(C)OCC(O)C[Se]C(=O)NC12CC3CC(CC(C3)C1)C2 (racemic) [3r, 3 r]
3 | 74.3 µM | 84.6 µM |  | Cc1cc(C)cc(NC(=O)[Se][C@@H]2CCCC[C@H]2O)c1 (relative stereo) [3s, 3 s]
4 | 38.6 µM | 11.6 µM |  | Cc1ccc([Se]C(=O)Nc2ccc(Br)cc2)cc1 [3k, 3 k]
5 | 85 µM | 39.9 µM |  | O=C(Nc1ccc(Br)cc1)[Se]Cc1ccccc1 [3p, 3 p]
6 | > 100 µM |  | > 100 µM | Cc1ccc(S(=O)(=O)N[C@@H](C)C[Se]C(=O)Nc2cc(C)cc(C)c2)cc1 [3u, 3 u]

Second part, the compound before the results:

Row | SMILES | Ki [1] | Ki [2] | Ki [3]
7 | O=C(NCc1ccco1)[Se][C@@H]1CCCC[C@H]1O (relative stereo) [3t, 3 t] | 67.4 µM | 83.4 µM | 
8 | Cc1cc(C)cc(NC(=O)[Se]c2ccccc2)c1 [3a, 3 a] | 49.5 µM | 5.3 µM | 
9 | O=C(Nc1ccccc1)[Se]c1ccccc1 [3b, 3 b] | 40.4 µM | 4.1 µM | 
10 | Cc1ccc(NC(=O)[Se]c2ccccc2)cc1 [3c, 3 c] | 25.9 µM | 8.4 µM | 
11 | COc1cccc(NC(=O)[Se]c2ccccc2)c1 [3d, 3 d] | 49.3 µM | 7.9 µM | 
12 | O=C(Nc1ccccc1F)[Se]c1ccccc1 [3e, 3 e] | 30.8 µM | 9.2 µM | 
13 | O=C(Nc1ccc(F)cc1)[Se]c1ccccc1 [3f, 3 f] | 15.3 µM | 9.4 µM | 
14 | O=C(Nc1ccc(Cl)cc1)[Se]c1ccccc1 [3g, 3 g] | 42.5 µM | 13.1 µM | 
15 | O=C(Nc1ccc(Br)cc1)[Se]c1ccccc1 [3h, 3 h] | 13.8 µM | 8.6 µM | 
16 | O=C(NCc1ccco1)[Se]c1ccccc1 [3i, 3 i] | 8.8 µM | 40.4 µM | 
17 | NC(=O)[Se]c1ccccc1 [3j, 1‐(phenylselanyl)formamide] | 9.8 µM | 6.8 µM | 
18 | Cc1ccccc1[Se]C(=O)Nc1ccc(Br)cc1 [3l, 3 l] | 13.4 µM | 8 µM | 
19 | CCCCCCCCCCCC[Se]C(=O)Nc1ccc(Br)cc1 [3m, 3 m] | 92.1 µM | 87.4 µM | 
20 | CCCCCCCCCCCC[Se]C(N)=O [3n, 3 n] | 90.3 µM | 85.2 µM | 
